In patent US20230265151A1, “GIP/GLP1 CO-AGONIST COMPOUNDS” (priority 2020, published 2023):
Like-named read-outs stand apart in the source and are kept apart here.

Tests used:
[1] = target: T1, human Gcg receptor (hGcgR) (Homo sapiens, UniProt P47871); experiment: [125I]-Glucagon binding, SPA with membranes of HEK293 cells expressing hGcgR; conditions: human GcgR; geometric mean (SEM, n); read-out: Binding Affinity Ki, nM (SEM, n) hGCGR
T1 construct: expressed in transfected cells; crude membranes
Protocol: Two methods are used for the preparation of crude cell membranes.
Method 1: Frozen cell pellets are lysed on ice in hypotonic buffer containing 50 mM Tris HCl, pH 7.5, and Roche Complete™ Protease Inhibitors with EDTA. […] The homogenate is centrifuged at 4° C. at 1100 × g for 10 minutes. The supernatant is collected and stored on ice while the pellets are resuspended in homogenization buffer and rehomogenized as described above. The homogenate is centrifuged at 1100 × g for 10 minutes. The second supernatant is combined with the first supernatant and centrifuged at 35000 × g for 1 hour at 4° C. The resulting membrane pellet is resuspended in homogenization buffer containing protease inhibitors at approximately 1 to 3 mg/mL, quick frozen in liquid nitrogen and stored as aliquots in a -80° C. freezer until use.
The homogenate is centrifuged at 4° C. at 1800 × g for 15 minutes. The supernatant is collected and stored on ice while the pellets are resuspended in homogenization buffer (without DNAse I) and rehomogenized as described above. The homogenate is centrifuged at 1800 × g for 15 minutes. The second supernatant is combined with the first supernatant and centrifuged an additional time at 1800 × g for 15 minutes. The overall supernatant is then centrifuged at 25000 × g for 30 minutes at 4° C. The resulting membrane pellet is resuspended in homogenization buffer (without DNAse I) containing protease inhibitors at approximately 1 to 3 mg/mL and stored as aliquots in a -80° C. freezer until use.
The human Gcg receptor binding assays are performed using a Scintillation Proximity Assay (SPA) format with wheat germ agglutinin (WGA) beads (Perkin Elmer). The binding buffer contains 25 mM 4-(2-hydroxyethyl)-1-piperazineethanesulfonic acid (HEPES), pH 7.4, 2.5 mM CaCl2, 1 mM MgCh, 0.1% (w/v) bacitracin (Research Products), 0.003% (w/v) Polyoxyethylenesorbitan monolaurate (TWEEN®-20), and Roche Complete™ Protease Inhibitors without EDTA. […] Next, 5 µL serially diluted compound or DMSO is transferred into Corning® 3632 clear bottom assay plates containing 45 µL assay binding buffer or unlabeled Gcg control (non-specific binding or NSB, at 1 µM final). […] Plates are sealed and mixed on a plate shaker (setting 6) for 1 minute and read with a PerkinElmer Trilux MicroBeta® scintillation counter after 12 hours of incubation/settling time at room temperature.
Raw CPM data for concentration curves of peptides, Gcg, GLP-1, or GIP are converted to percent inhibition by subtracting nonspecific binding (binding in the presence of excess unlabeled Gcg, GLP-1, or GIP, respectively) from the individual CPM values and dividing by the total binding signal, also corrected by subtracting nonspecific binding. Data are analyzed using four-parameter (curve maximum, curve minimum, IC50, Hill slope) nonlinear regression routines (Genedata Screener, version 12.0.4, Genedata AG, Basal, Switzerland). […] Values for Ki are reported as the geometric mean, with error expressed as the standard error of the mean (SEM) and n is equal to the number of independent replicates (determined in assays performed on different days). Geometric Means are calculated as follows: […]
The Ki Ratio (Ki for native control peptide/Ki for test compound) at each receptor and each species is calculated. The Ki Ratio is a rapid indication of the apparent affinity of a peptide compared to the native control peptide.
n=⅟x means that only one value out of the total number of replicates (x) is used to express the mean. SEM is only calculated when n=2 or greater non-qualified results exist. Means are expressed as GeoMetric means with the standard error of the mean (SEM) and the number of replicates (n) indicated in parenthesis.

hGIPR = target: T2, hGIPR (Homo sapiens, UniProt P48546); experiment: Functional cAMP formation (HTRF) in HEK-293 clonal cells expressing hGIPR, 0.1% bovine casein, without or with 1.0% human serum albumin; assay type: cell-based
T2 construct: expressed in transfected cells
T2 sequence (P48546 22-466): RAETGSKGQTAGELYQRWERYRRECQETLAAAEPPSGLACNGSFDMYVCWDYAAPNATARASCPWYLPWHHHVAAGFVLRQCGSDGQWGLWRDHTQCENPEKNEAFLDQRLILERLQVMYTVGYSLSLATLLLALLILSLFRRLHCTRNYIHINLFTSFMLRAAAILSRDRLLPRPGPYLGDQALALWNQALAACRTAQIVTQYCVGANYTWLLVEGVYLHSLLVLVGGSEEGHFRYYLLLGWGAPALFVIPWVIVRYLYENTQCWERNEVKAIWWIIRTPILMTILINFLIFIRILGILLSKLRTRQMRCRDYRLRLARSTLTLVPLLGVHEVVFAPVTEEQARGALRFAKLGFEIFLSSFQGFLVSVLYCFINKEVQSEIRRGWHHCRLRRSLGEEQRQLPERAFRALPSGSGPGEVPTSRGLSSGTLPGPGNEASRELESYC
How it was run: (§1)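 Cells were stimulated with peptide for 30 min at 37° C, then intracellular cAMP was measured by competitive HTRF (665/620 nm ratio) and converted to nM using a cAMP standard curve. Relative EC50 and Emax came from four-parameter logistic fits of percent maximal response against peptide concentration.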

hGCGR = target: T3, hGCGR (Homo sapiens, UniProt P47871); experiment: Functional cAMP formation (HTRF) in HEK-293 clonal cells expressing hGCGR, 0.1% bovine casein, without or with 1.0% human serum albumin; assay type: cell-based
T3 construct: expressed in transfected cells
How it was run: as §1

hGLP-1R = hGLP-1R (Homo sapiens, UniProt P43220); experiment: Functional cAMP formation (HTRF) in HEK-293 clonal cells expressing hGLP-1R, 0.1% bovine casein, without or with 1.0% human serum albumin; assay type: cell-based; parameters: expressed in transfected cells; conditions: for EC50: 37° C., geometric mean
How it was run: as §1

[2] = target: T4, human GLP-1 receptor (hGLP-1R) (Homo sapiens, UniProt P43220); experiment: [125I]-GLP-1 binding, SPA with membranes of HEK293 cells expressing hGLP-1R
T4 construct: expressed in transfected cells; crude membranes

[3] = target: T5, human GIP receptor (hGIPR) (Homo sapiens, UniProt P48546); experiment: [125I]-GIP binding, SPA with membranes of CHO cells expressing hGIPR
T5 construct: expressed in transfected cells; crude membranes
T5 sequence (P48546 22-466): T2 sequence (P48546 22-466)

[4] = 0.1% bovine casein and 1.0% human serum albumin, 37° C., geometric mean, read-out: hGIPR EC50, nM (SEM, n)
[5] = HEK293, 0.1% bovine casein and 1.0% human serum albumin, 37° C., percent of maximal response to GIP(1-42)NH2, read-out: hGIPR Emax, % ± SEM
[6] = 0.1% bovine casein and 1.0% human serum albumin, 37° C., geometric mean, read-out: hGCGR EC50, nM (SEM, n)
[7] = cAMP, incubated at 37° C., 0.1% bovine casein (no human serum albumin), geometric mean, read-out: hGCGR EC50, nM (SEM, n)
[8] = 0.1% bovine casein and 1.0% human serum albumin, read-out: hGLP-1R EC50, nM (SEM, n)

T3 sequence (P47871 26-477): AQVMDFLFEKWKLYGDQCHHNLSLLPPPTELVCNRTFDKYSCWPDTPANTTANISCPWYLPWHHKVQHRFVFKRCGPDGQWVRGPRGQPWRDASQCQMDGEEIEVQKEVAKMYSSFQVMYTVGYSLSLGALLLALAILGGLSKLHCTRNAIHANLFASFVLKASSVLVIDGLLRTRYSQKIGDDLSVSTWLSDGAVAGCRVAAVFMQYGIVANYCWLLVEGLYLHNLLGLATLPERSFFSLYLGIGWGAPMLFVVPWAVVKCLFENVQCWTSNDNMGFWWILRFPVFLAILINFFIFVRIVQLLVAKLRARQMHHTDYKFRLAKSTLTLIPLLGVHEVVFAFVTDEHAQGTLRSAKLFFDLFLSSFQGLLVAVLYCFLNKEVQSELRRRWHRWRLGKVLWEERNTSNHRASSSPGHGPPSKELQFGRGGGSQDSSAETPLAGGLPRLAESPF
Chain of hGLP-1R (P43220 24-463): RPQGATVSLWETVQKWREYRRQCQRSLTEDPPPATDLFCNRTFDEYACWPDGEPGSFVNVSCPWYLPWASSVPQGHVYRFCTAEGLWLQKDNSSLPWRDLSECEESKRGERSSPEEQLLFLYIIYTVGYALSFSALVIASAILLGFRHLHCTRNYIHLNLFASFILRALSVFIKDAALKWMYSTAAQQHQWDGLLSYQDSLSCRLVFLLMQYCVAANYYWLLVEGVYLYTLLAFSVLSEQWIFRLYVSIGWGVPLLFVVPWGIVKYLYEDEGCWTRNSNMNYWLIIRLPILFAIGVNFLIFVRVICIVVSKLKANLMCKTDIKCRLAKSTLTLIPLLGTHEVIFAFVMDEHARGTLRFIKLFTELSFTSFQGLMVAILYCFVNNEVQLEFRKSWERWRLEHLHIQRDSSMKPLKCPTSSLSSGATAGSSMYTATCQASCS
T1 sequence (P47871 26-477): as the sequence (P47871 26-477) above
T4 sequence (P43220 24-463): as the sequence (P43220 24-463) above

Row | SMILES | Ki [1] [nM] | EC50 (hGIPR; [4]) [nM] | Emax (hGIPR; [5]) [%] | Emax (hGIPR; HEK293, percent of maximal response to GIP(1-42)NH2, 37° C., 0.1% bovine casein, arithmetic mean, read-out: hGIPR Emax, % ± SEM) [%] | EC50 (hGIPR; cAMP, incubated at 37° C., 0.1% bovine casein (no human serum albumin), geometric mean, read-out: hGIPR EC50, nM (SEM, n)) [nM] | EC50 (hGCGR; [6]) [nM] | EC50 (hGCGR; [7]) [nM] | EC50 (hGLP-1R; [8]) [nM] | Ki [2] [nM] | Ki [3] [nM] | Emax (hGIPR; HEK293, read-out: hGIPR Emax, % ± SEM, cAMP, 37° C., 0.1% bovine casein, percent of maximal response to GIP(1-42)NH2, arithmetic mean) [%] | EC50 (hGIPR; hGIPR EC50, nM (SEM, n), cAMP, 37° C., 0.1% bovine casein (no human serum albumin), geometric mean) [nM] | EC50 (hGIPR; hGIPR EC50, nM (SEM, n), cAMP, 37° C., 0.1% bovine casein and 1.0% human serum albumin, geometric mean (SEM, n)) [nM] | EC50 (hGCGR; hGCGR EC50, nM (SEM, n), cAMP, 37° C., 0.1% bovine casein (no human serum albumin), geometric mean) [nM] | EC50 (hGCGR; hGCGR EC50, nM (SEM, n), cAMP, 37° C., 0.1% bovine casein and 1.0% human serum albumin, geometric mean (SEM, n)) [nM] | Emax (hGLP-1R; HEK293, read-out: hGLP-1R Emax, % ± SEM, cAMP, 37° C., 0.1% bovine casein, percent of maximal response to GLP-1(7-36)NH2, arithmetic mean) [%] | EC50 (hGLP-1R; hGLP-1R EC50, nM (SEM, n), cAMP, 0.1% bovine casein (no human serum albumin)) [nM]
1 | CC[C@H](C)[C@H](NC(=O)[C@H](CC(C)C)NC(=O)[C@](C)(Cc1ccc(O)cc1)NC(=O)[C@@H](CCC(=O)O)NC(=O)[C@@H](NC(=O)[C@H](Cc1ccccc1)NC(=O)[C@H](CCC(=O)O)NC(=O)C(C)(C)NC(=O)[C@H](CCC(N)=O)NC(=O)[C@H](C)NC(=O)[C@H](CCCCNC(=O)COCCOCCNC(=O)COCCOCCNC(=O)CC[C@H](NC(=O)CCCCCCCCCCCCC(=O)O)C(=O)O)NC(=O)[C@H](CCCN)NC(=O)[C@H](CC(=O)O)NC(=O)[C@H](CC(C)C)NC(=O)[C@](C)(CC(C)C)NC(=O)[C@@H](NC(=O)[C@H](CO)NC(=O)[C@H](Cc1ccncc1)NC(=O)[C@H](CC(=O)O)NC(=O)[C@H](CO)NC(=O)[C@@H](NC(=O)[C@](C)(Cc1ccccc1F)NC(=O)[C@@H](NC(=O)CNC(=O)[C@H](CCC(=O)O)NC(=O)C(C)(C)NC(=O)[C@@H](N)Cc1ccc(O)cc1)[C@@H](C)O)[C@@H](C)O)[C@@H](C)CC)[C@@H](C)CC)C(=O)N[C@@H](CCC(=O)O)C(=O)NCC(=O)N[C@@H](CCCCNC(=O)COCCOCCNC(=O)COCCOCCNC(=O)CC[C@H](NC(=O)CCCCCCCCCCCCC(=O)O)C(=O)O)C(=O)N1CCC[C@H]1C(=O)N[C@@H](CO)C(=O)N[C@@H](CO)C(=O)NCC(=O)N[C@@H](C)C(=O)N1CCC[C@H]1C(=O)N1CCC[C@H]1C(=O)N1CCC[C@H]1C(=O)N[C@@H](CO)C(N)=O [Example 18] | > 958 | 1.12 | 86.9 ± 3.59 | 97.1 ± 3.28 | 0.0226 | > 9950 | > 9950 | 164 |  |  |  |  |  |  |  |  | 
2 | CC[C@H](C)[C@H](NC(=O)[C@H](CC(C)C)NC(=O)[C@](C)(Cc1ccc(O)cc1)NC(=O)[C@@H](CCC(=O)O)NC(=O)[C@@H](NC(=O)[C@H](Cc1ccccc1)NC(=O)[C@H](CCC(=O)O)NC(=O)C(C)(C)NC(=O)[C@H](CCC(N)=O)NC(=O)[C@H](C)NC(=O)[C@H](CCCCNC(=O)COCCOCCNC(=O)COCCOCCNC(=O)CC[C@H](NC(=O)CCCCCCCCCCC(=O)O)C(=O)O)NC(=O)[C@H](CCCN)NC(=O)[C@H](CC(=O)O)NC(=O)[C@H](CC(C)C)NC(=O)[C@](C)(CC(C)C)NC(=O)[C@@H](NC(=O)[C@H](CO)NC(=O)[C@H](Cc1ccncc1)NC(=O)[C@H](CC(=O)O)NC(=O)[C@H](CO)NC(=O)[C@@H](NC(=O)[C@](C)(Cc1ccccc1F)NC(=O)[C@@H](NC(=O)CNC(=O)[C@H](CCC(=O)O)NC(=O)C(C)(C)NC(=O)[C@@H](N)Cc1ccc(O)cc1)[C@@H](C)O)[C@@H](C)O)[C@@H](C)CC)[C@@H](C)CC)C(=O)N[C@@H](CCC(=O)O)C(=O)NCC(=O)NCC(=O)N[C@@H](CCCCNC(=O)COCCOCCNC(=O)COCCOCCNC(=O)CC[C@H](NC(=O)CCCCCCCCCCC(=O)O)C(=O)O)C(=O)N[C@@H](CO)C(=O)N[C@@H](CO)C(=O)NCC(=O)N[C@@H](C)C(=O)N1CCC[C@H]1C(=O)N1CCC[C@H]1C(=O)N1CCC[C@H]1C(=O)N[C@@H](CO)C(N)=O [Example 6] | > 969 | 0.0823 | 89.4 ± 1.74 |  |  | > 9950 | > 9950 | 4.19 |  |  |  |  |  |  |  |  | 
3 | CC[C@H](C)[C@H](NC(=O)[C@H](CC(C)C)NC(=O)[C@](C)(Cc1ccc(O)cc1)NC(=O)[C@H](CCCCNC(=O)COCCOCCNC(=O)CC[C@H](NC(=O)CCCCCCCCCOc1ccc(C(=O)O)cc1)C(=O)O)NC(=O)[C@@H](NC(=O)[C@H](Cc1ccccc1)NC(=O)[C@H](CCCN)NC(=O)C(C)(C)NC(=O)[C@H](CCC(N)=O)NC(=O)[C@H](C)NC(=O)[C@H](CCC(N)=O)NC(=O)[C@H](CCCN)NC(=O)[C@H](CC(=O)O)NC(=O)[C@H](CC(C)C)NC(=O)[C@](C)(CC(C)C)NC(=O)[C@@H](NC(=O)C(C)(C)NC(=O)[C@H](Cc1ccncc1)NC(=O)[C@H](CC(=O)O)NC(=O)[C@H](CO)NC(=O)[C@@H](NC(=O)[C@](C)(Cc1ccccc1F)NC(=O)[C@@H](NC(=O)CNC(=O)[C@H](CCC(=O)O)NC(=O)C(C)(C)NC(=O)[C@@H](N)Cc1ccc(O)cc1)[C@@H](C)O)[C@@H](C)O)[C@@H](C)CC)[C@@H](C)CC)C(=O)N[C@@H](CCCCNC(=O)COCCOCCNC(=O)CC[C@H](NC(=O)CCCCCCCCCOc1ccc(C(=O)O)cc1)C(=O)O)C(=O)NCC(=O)NCC(=O)N1CCC[C@H]1C(=O)N[C@@H](CO)C(=O)N[C@@H](CO)C(=O)NCC(=O)N[C@@H](C)C(=O)N1CCC[C@H]1C(=O)N1CCC[C@H]1C(=O)N1CCC[C@H]1C(=O)N[C@@H](CO)C(N)=O [Example 463] |  |  |  |  |  |  |  |  | 0.143 | 0.0183 | 91.4 | 0.0124 | 0.35 | > 9950 | > 9950 | 111 | 0.267
